How the values were obtained:
P. aeruginosa = assay: Test A: antibiotic sensitivity in contaminated urine, tetrazolium violet colour change; assay type: cell-based; conditions: urine with 10^5 cfu/mL P. aeruginosa, 37° C. 10 hours; μg/ml: nitrofurantoin 64, pivmecillinam 4, trimethoprim 1, cephalexin 16, ciprofloxacin 0.25
K. pneumoniae = assay: Test D: antibiotic sensitivity in contaminated urine, tetrazolium violet colour change; assay type: cell-based; conditions: urine with 10^5 cfu/mL K. pneumoniae, 37° C. 10 hours; μg/ml: nitrofurantoin 64, pivmecillinam 4, trimethoprim 8, cephalexin 32, ciprofloxacin 0.25
Experimental: Each test tube contained 0.04 mg tetrazolium violet, 6.6 mg Wilkins Chalgren media. The test chambers also contained an amount of antibiotic compound as indicated in the tables below (as concentration in final volume of urine).
For each example, 0.2 mL of a urine sample was contaminated with 10^5 cfu/mL of the specified bacteria was poured into each test tube. The resultant composition was incubated at 37° C. for 10 hours. FIGS. 3A to 3F show the test tubes after the incubation period.

| SMILES | infection treatable or resistant (FIG. 4A) (P. aeruginosa) | infection treatable or resistant (FIG. 4D) (K. pneumoniae) |
| --- | --- | --- |
| O=C(O)c1cn(C2CC2)c2cc(N3CCNCC3)c(F)cc2c1=O [ciprofloxacin] | can be treated | can be treated |
| COc1cc(Cc2cnc(N)nc2N)cc(OC)c1OC [trimethoprim] |  | can be treated |

Reference: US20210060550A1, “DEVICES AND METHODS FOR DETECTION OF MICROORGANISMS” (MICROBIOSENSOR LIMITED, priority 2017, published 2021)
